# Test results reported in US7067658B2, “Pyridino and pyrimidino pyrazinones” (Bristol-Myers Squibb Company, priority 2002, dated 2006).
# Where two headings read alike, the source gives them in different places.
# Target: T1, cloned human CRF1 receptors (Homo sapiens, UniProt P34998)
# T1 construct: the coding region is amplified by PCR from start to stop codons; expressed in transfected cells; host or cells: 293EBNA cells (episomal vector phchCRFR, hygromycin selection); membrane homogenate
# T1 sequence (P34998 24-415): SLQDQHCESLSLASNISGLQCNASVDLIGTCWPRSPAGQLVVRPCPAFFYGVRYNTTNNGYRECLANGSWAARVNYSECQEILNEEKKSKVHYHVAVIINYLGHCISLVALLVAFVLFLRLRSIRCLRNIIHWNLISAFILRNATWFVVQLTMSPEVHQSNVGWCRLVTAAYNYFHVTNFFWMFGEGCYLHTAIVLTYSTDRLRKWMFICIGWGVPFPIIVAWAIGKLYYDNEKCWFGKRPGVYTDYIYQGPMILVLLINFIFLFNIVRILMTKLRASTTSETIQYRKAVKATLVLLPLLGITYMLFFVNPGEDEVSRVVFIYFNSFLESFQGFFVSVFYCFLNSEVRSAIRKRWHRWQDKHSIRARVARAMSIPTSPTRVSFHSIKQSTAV
# Assay: CRF1 receptor binding assay (inhibition of 125I-ovine-CRF binding to membranes of 293EBNA cells transfected with hCRFR1)
# Source text: Provided herein is an example of a CRF1 receptor binding assay that can be used for the evaluation of biological activity of compounds of the present invention. The example also includes isolation of cell membranes containing cloned human CRF1 receptors for use in the binding assay.
# Messenger RNA is isolated from human hippocampus by standard techniques. The mRNA is reverse transcribed using oligo (dt) 12–18 and the coding region is amplified by PCR from start to stop codons The resulting PCR fragment is cloned into the EcoRV site of pGEMV, from whence the insert is reclaimed using XhoI+XbaI and cloned into the XhoI+XbaI sites of vector pm3ar (which contains a CMV promoter, the SV40 ‘t’ splice and early poly A signals, an Epstein-Barr viral origin of replication, and a hygromycin selectable marker). […] Cells surviving 4 weeks of selection in hygromycin are pooled, adapted to growth in suspension, and used to generate membranes for the binding assay described below. Individual aliquots containing approximately 1×10^8 of the suspended cells are then centrifuged to form a pellet and frozen.
# The homogenate is centrifuged at 40,000×g for 12 min and the resulting pellet rehomogenized in 10 mL of tissue buffer. After another centrifugation at 40,000×g for 12 min, the pellet is resuspended to a protein concentration of 360 μg/ml to be used in the assay.
# Binding assays are performed in 96 well plates; each well having a 300 μL capacity. […] Plates are then allowed to incubate at room temperature for 2 hours before filtering the incubate over GF/F filters (presoaked with 0.3% polyethyleneimine) using an appropriate cell harvester. Filters are rinsed 2 times with ice cold assay buffer before removing individual filters and assessing them for radioactivity on a gamma counter.
# [1] = IC50 ranges as class symbols a-e, read-out: IC50 Range* (potency of binding to CRF1 receptor)
# [2] = IC50 ranges, class symbols a-e, read-out: IC50 Range* (potency of binding to CRF1 receptor)
Compound,IC50 [2],also measured
"COCC(C)n1c(=O)c(C)nc2c(-c3cc(F)c(N(C)C)cc3Cl)ccnc21 (stereo not shown) [Example 506, 8-(2-Chloro-4-dimethylamino-5-fluoro-phenyl)-4-(2-methoxy-1-methyl-ethyl)-2-methyl-4H-pyrido[2,3-b]pyrazin-3-one]",–,IC50 [1]: 0.001 to 0.01 µM
"CCC(COC)n1c(=O)c(C)nc2c(-c3cc(F)c(N(C)C)cc3Cl)ccnc21 (stereo not shown) [Example 507, 8-(2-Chloro-4-dimethylamino-5-fluoro-phenyl)-4-(1-methoxymethyl-propyl)-2-methyl-4H-pyrido[2,3-b]pyrazin-3-one]",–,IC50 [1]: < 0.001 µM
"CCC(C1CC1)n1c(=O)c(C)nc2c(-c3cc(C)c(OC)cc3Cl)ccnc21 (stereo not shown) [Example 484, 8-(2-Chloro-4-methoxy-5-methyl-phenyl)-4-(1-cyclopropyl-propyl)-2-methyl-4H-pyrido[2,3-b]pyrazin-3-one]",–,IC50 [1]: < 0.001 µM
COCC(C)n1c(=O)c(C)nc2c(-c3ccc(OC)cc3Cl)ccnc21 (stereo not shown) [compound 25],0.01 to 0.1 µM,–
"CCCC(CCC)n1c(=O)c(C)nc2c(-c3ccc(OC)cc3Cl)ncnc21 [Example 563, 4-(2-Chloro-4-methoxy-phenyl)-6-methyl-8-(1-propyl-butyl)-8H-pteridin-7-one]",0.001 to 0.01 µM,–
COCC(C)n1c(=O)c(C)nc2c(-c3ccc(OC)nc3C)ncnc21 (stereo not shown) [compound 650],> 1 µM,–
"CCCC(C)n1c(=O)c(C)nc2c(-c3ccc(Cl)cc3Cl)ccnc21 (racemic) [Example 2, (R,S)-8-(2,4-dichloro-phenyl)-2-methyl-4-(1-methyl-butyl)-4H-pyrido[2,3-b]pyrazin-3-one]",0.01 to 0.1 µM,–
"CCC(COC)n1c(=O)c(C)nc2c(-c3ccc(Cl)cc3Cl)ccnc21 (racemic) [Example 10, (R,S)-8-(2,4-dichloro-phenyl)-4-(1-methoxymethyl-propyl)-2-methyl-4H-pyrido[2,3-b]pyrazin-3-one]",0.001 to 0.01 µM,–
"Cc1nc2c(-c3ccc(OC(F)(F)F)cc3Cl)ncnc2n(C(C)C2CC2)c1=O (stereo not shown) [Example 1062, 4-(2-Chloro-4-trifluoromethoxy-phenyl)-8-(1-cyclopropyl-ethyl)-6-methyl-8H-pteridin-7-one]",–,"IC50 (IC50 ranges as class symbols a-e, read-out: IC50 Range (potency of binding to CRF1 receptor)): 0.1 to 1 µM"
"CCC(COC)n1c(=O)c(C)nc2c(-c3cc(C)c(OC)cc3Cl)ccnc21 (stereo not shown) [Example 491, 8-(2-Chloro-4-methoxy-5-methyl-phenyl)-4-(1-methoxymethyl-propyl)-2-methyl-4H-pyrido[2,3-b]pyrazin-3-one]",–,IC50 [1]: < 0.001 µM
"CCCC(C1CC1)n1c(=O)c(C)nc2c(-c3ccc(OC)cc3C)ccnc21 (racemic) [Example 69, (R,S)-4-(1-cyclopropyl-butyl)-8-(4-methoxy-2-methyl-phenyl)-2-methyl-4H-pyrido[2,3-b]pyrazin-3-one]",0.001 to 0.01 µM,–
"CCCC(C1CC1)n1c(=O)c(C)nc2c(-c3ccc(Cl)cc3Cl)ccnc21 (racemic) [Example 5, (R,S)-4-(1-cyclopropyl-butyl)-8-(2,4-dichloro-phenyl)-2-methyl-4H-pyrido[2,3-b]pyrazin-3-one]",0.001 to 0.01 µM,–
"CCCCC(CC)n1c(=O)c(C)nc2c(-c3ccc(OC)nc3C)ccnc21 (racemic) [Example 97, (R,S)-4-(1-ethyl-pentyl)-8-(6-methoxy-2-methyl-pyridin-3-yl)-2-methyl-4H-pyrido[2,3-b]pyrazin-3-one]",0.1 to 1 µM,–
"COCC(C)n1c(=O)c(C)nc2c(-c3ccc(Cl)cc3Cl)ccnc21 (racemic) [Example 9, (R,S)-8-(2,4-dichloro-phenyl)-4-(2-methoxy-1-methyl-ethyl)-2-methyl-4H-pyrido[2,3-b]pyrazin-3-one]",0.01 to 0.1 µM,–
"CCC(C)n1c(=O)c(C)nc2c(-c3ccc(OC(F)F)cc3Cl)ccnc21 (racemic) [Example 113, (R,S)-4-sec-butyl-8-(2-chloro-4-difluoromethoxy-phenyl)-2-methyl-4H-pyrido[2,3-b]pyrazin-3-one]",0.01 to 0.1 µM,–
"CCC(COC)n1c(=O)c(C)nc2c(-c3cc(Cl)c(OC)cc3C)ccnc21 (stereo not shown) [Example 459, 8-(5-Chloro-4-methoxy-2-methyl-phenyl)-4-(1-methoxymethyl-propyl)-2-methyl-4H-pyrido[2,3-b]pyrazin-3-one]",–,IC50 [1]: 0.001 to 0.01 µM
"CCCC(C1CC1)n1c(=O)c(C)nc2c(-c3ccc(OC(F)F)cc3Cl)ccnc21 (racemic) [Example 117, (R,S)-8-(2-Chloro-4-difluoromethoxy-phenyl)-4-(1-cyclopropyl-butyl)-2-methyl-4H-pyrido[2,3-b]pyrazin-3-one]",0.001 to 0.01 µM,–
"CCCC(C1CC1)n1c(=O)c(C)nc2c(-c3ccc(OC)nc3C)ccnc21 (racemic) [Example 101, (R,S)-4-(1-cyclopropyl-butyl)-8-(6-methoxy-2-methyl-pyridin-3-yl)-2-methyl-4H-pyrido[2,3-b]pyrazin-3-one]",0.01 to 0.1 µM,–
"CCC(COC)n1c(=O)c(C)nc2c(-c3cc(F)c(OC)cc3Cl)ccnc21 (stereo not shown) [Example 250, 8-(2-Chloro-5-fluoro-4-methoxy-phenyl)-4-(1-methoxymethyl-propyl)-2-methyl-4H-pyrido[2,3-b]pyrazin-3-one]",–,"IC50 (Potency of binding to CRF1 receptor, listed as IC50 ranges, read-out: IC50 Range*): 0.001 to 0.01 µM"
"CCC(C)n1c(=O)c(C)nc2c(-c3ccc(Cl)cc3Cl)ncnc21 (racemic) [Example 546, (R,S)-8-sec-Butyl-4-(2,4-dichloro-phenyl)-6-methyl-8H-pteridin-7-one]",0.1 to 1 µM,–
"CCC(C1CC1)n1c(=O)c(C)nc2c(-c3cc(F)c(N(C)C)cc3Cl)ccnc21 (stereo not shown) [Example 500, 8-(2-Chloro-4-dimethylamino-5-fluoro-phenyl)-4-(1-cyclopropyl-propyl)-2-methyl-4H-pyrido[2,3-b]pyrazin-3-one]",–,IC50 [1]: < 0.001 µM
"Cc1nc2c(-c3ccc(Cl)cc3Cl)ccnc2n(CC(C)C)c1=O [Example 1, (R,S)-8-(2,4-dichloro-phenyl)-4-isobutyl-2-methyl-4H-pyrido[2,3-b]pyrazin-3-one]",> 1 µM,–
CCC(C1CCC1)n1c(=O)c(C)nc2c(-c3ccc(OC)cc3Cl)ccnc21 (stereo not shown) [compound 23],0.001 to 0.01 µM,–
"CCC(C1CC1)n1c(=O)c(C)nc2c(-c3cc(Cl)c(OC)cc3C)ccnc21 (stereo not shown) [Example 452, 8-(5-Chloro-4-methoxy-2-methyl-phenyl)-4-(1-cyclopropyl-propyl)-2-methyl-4H-pyrido[2,3-b]pyrazin-3-one]",–,IC50 [1]: < 0.001 µM
"CCCC(CCC)n1c(=O)c(C)nc2c(-c3ccc(OC)cc3Cl)ccnc21 [Example 18, (R,S)-8-(2-chloro-4-methoxy-phenyl)-2-methyl-4-(1-propyl-butyl)-4H-pyrido[2,3-b]pyrazin-3-one]",0.001 to 0.01 µM,–
